From publication PMC12548092, “Exploring Helical Fraying Linked to Dynamics and Catalysis in Adenylate Kinase” (Biochemistry, 2025)

Target: T1, hAK1 (Homo sapiens, UniProt P00568)
T1 construct: gene AK1; pET24d, E. coli BL21 (DE3), Blue Sepharose and size exclusion; 15N/13C-labelled
T1 sequence (P00568 1-194): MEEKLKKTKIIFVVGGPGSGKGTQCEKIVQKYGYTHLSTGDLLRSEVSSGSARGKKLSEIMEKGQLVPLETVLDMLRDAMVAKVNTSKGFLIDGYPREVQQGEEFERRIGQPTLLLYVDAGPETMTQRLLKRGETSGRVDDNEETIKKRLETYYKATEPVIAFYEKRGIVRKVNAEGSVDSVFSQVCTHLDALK
Experiment: NMR backbone assignment and […] relaxation order parameters
Assay type: binding
Conditions: 30 mM MES, 50 mM NaCl, pH 5.5 (assignment), 298 K

With `Nc1ncnc2c1ncn2[C@@H]1O[C@H](COP(=O)(O)OP(=O)(O)OP(=O)(O)OP(=O)(O)OP(=O)(O)OC[C@H]2O[C@@H](n3cnc4c(N)ncnc43)[C@H](O)[C@@H]2O)[C@@H](O)[C@H]1O` [Ap5A] the “NMR backbone assignment and 15N relaxation order parameters” value was “one helical turn in the α-helix at the N-terminus of the catalytic loop”.
